Experiments:
[1] = biological target: T1, RXRα (Homo sapiens, UniProt P19793); test: holoreceptor transactivation assay, RXRα; format: cell-based; settings: efficacy as a percentage compared to the standard compound
T1 construct: expressed in transfected cells
T1 sequence (P19793 1-462): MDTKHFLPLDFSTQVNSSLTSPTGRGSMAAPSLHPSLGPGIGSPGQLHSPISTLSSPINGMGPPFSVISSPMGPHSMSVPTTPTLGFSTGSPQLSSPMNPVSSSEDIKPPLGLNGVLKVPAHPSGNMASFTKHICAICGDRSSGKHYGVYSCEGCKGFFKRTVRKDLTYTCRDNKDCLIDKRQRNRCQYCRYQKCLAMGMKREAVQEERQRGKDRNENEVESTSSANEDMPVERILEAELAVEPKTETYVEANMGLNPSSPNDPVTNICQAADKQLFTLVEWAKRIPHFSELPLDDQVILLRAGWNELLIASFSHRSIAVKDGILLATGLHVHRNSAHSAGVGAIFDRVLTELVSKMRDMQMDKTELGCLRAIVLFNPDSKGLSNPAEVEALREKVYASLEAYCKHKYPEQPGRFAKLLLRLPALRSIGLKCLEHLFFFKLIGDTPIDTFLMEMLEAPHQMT
From the text: (§1) Particularly, the transactivation data pertaining to activation of the RAR receptors were obtained in the chimeric assay, and the transactivation data pertaining to the activation of RXR receptors were obtained in the holoreceptor assay.

[2] = biological target: T2, RXRβ (Homo sapiens, UniProt P28702); test: holoreceptor transactivation assay, RXRβ; format: cell-based
T2 construct: expressed in transfected cells
T2 sequence (P28702 1-533): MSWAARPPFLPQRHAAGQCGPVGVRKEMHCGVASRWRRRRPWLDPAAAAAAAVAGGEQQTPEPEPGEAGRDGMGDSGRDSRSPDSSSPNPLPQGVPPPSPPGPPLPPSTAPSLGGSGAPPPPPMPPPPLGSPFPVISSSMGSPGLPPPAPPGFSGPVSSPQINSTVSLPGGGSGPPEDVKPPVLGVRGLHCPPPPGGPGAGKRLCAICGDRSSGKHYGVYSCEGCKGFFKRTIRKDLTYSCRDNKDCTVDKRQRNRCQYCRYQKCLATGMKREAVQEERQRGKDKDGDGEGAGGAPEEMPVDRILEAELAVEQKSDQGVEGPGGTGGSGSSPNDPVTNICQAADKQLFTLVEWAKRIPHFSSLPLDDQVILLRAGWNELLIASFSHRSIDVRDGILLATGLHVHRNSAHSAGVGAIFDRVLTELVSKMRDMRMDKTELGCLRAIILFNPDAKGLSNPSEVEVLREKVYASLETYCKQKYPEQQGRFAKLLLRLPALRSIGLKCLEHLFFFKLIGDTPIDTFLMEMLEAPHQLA
From the text: as §1

[3] = tested on: female diabetic db/db mice; test: serum glucose, triglyceride and thyroxine levels in db/db mice; format: in vivo
Procedure: An assay described below tests the effect of compounds of the invention on serum glucose, tryglyceride and thyroxine levels in female 9-10 weeks old db/db mice.
Blood samples (70 μl) were taken by orbital bleeding at 11:00 AM on day 0 (pre-treatment), day 3, and day 6. On day 7, a blood sample (700 μl) was taken at 11:00 AM and the animals were sacrificed. Glucose, triglyceride and thyroxine (T4) levels were determined on a Boehringer Manheim Hatachi Clinical Chemistry Analyzer using standard protocols provided by the manufacturer and reagents that were supplied in commercially available kits (glucose and T4; Boehringer Manheim; triglycerides: Roche Diagnostics). Seven animals were treated in each group.

[4] = female db/db mice, day 0 (pre-treatment), groups: standard compound 5 mg/kg, Compound 27 50 mg/kg
[5] = female db/db mice, oral gavage daily, standard compound 5 mg/kg, Compound 27 50 mg/kg

RXR Trans. efficacy α [1]: 100% | RXR Trans. efficacy β ([2]; efficacy as a percentage compared to the standard compound): 100% | T4 Day 7 ([3]; female db/db mice, oral gavage daily for seven days, standard compound 5 mg/kg, Compound 27 50 mg/kg): 2.6 ± 0.6 µg/dL
SMILES: CC(/C=C/[C@@H]1C[C@]1(C)c1ccc2c(c1)C(C)(C)CCC2(C)C)=C\C(=O)O [Standard compound, (2E,4E,1'S,2'S)-3-methyl-5-[2′-methyl-2′-(5,5,8,8-tetramethyl-5,6,7,8-tetrahydro-naphthalen-2-yl)-cyclopropyl]-penta-2,4-dienoic acid]
efficacy in activating RXRβ compared with RXRα and RXRγ ([2]; transactivation, comparison of subtypes): approximately equally efficacious in activating the RXRα, RXRβ and RXRγ subtypes | effect on serum thyroxine levels ([3]; diabetic mammals (db/db mice), in words): undesirable side effect of reducing serum thyroxine levels | Glucose Day 0 [3, 4]: 356 mg/dL | Triglycerides Day 0 [3, 4]: 152 mg/dL | Glucose Day 3, 3 h [3, 5]: 249 mg/dL | Glucose Day 6, 3 h [3, 5]: 239 mg/dL | Triglycerides Day 3, 3 h [3, 5]: 137 mg/dL

— patent US6759547B1, “5,6,7,8-tetrahydronaphthalen-2-yl 2,6-difluoroheptatrienoic acid derivatives having serum glucose reducing activity” (Allergan, Inc., priority 2003, dated 2004)
